For 22 compounds, IC50 results are on record in patent US12667572B2, “Tricyclic compounds useful in the treatment of cancer, autoimmune and inflammatory disorders” (SCHRÖDINGER, INC., priority 2021, dated 2026).

The experiment concerns the target T1, full-length MALT1 protein His-MALT1(1-824) (Homo sapiens, UniProt Q9UDY8).
T1 construct: full-length MALT1 protein His-MALT1(1-824); His (N); made in house; host or cells: baculovirus-infected insect cells
T1 sequence (Q9UDY8 1-824): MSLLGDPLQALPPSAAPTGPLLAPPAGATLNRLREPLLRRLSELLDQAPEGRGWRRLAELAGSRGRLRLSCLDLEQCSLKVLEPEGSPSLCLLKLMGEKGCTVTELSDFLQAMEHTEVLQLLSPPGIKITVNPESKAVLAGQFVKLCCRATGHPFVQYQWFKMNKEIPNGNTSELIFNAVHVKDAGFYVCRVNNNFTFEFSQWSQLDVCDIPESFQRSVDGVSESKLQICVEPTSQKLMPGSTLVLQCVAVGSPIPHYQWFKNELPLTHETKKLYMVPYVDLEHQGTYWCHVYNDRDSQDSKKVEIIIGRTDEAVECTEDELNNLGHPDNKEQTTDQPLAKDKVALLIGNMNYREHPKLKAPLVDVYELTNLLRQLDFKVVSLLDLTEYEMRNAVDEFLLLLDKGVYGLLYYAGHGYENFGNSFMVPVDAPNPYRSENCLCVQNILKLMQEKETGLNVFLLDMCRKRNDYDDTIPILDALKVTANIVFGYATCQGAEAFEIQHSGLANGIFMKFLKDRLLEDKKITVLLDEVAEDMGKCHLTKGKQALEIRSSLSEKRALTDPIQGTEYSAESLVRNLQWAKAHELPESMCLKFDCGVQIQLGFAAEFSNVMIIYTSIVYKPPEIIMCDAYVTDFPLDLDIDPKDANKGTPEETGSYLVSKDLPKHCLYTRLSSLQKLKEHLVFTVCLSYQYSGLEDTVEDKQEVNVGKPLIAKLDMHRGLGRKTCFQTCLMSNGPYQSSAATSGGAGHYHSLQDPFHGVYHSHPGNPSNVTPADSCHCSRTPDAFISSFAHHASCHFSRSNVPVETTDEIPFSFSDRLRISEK
The experiment is described as follows: MALT1 protease assay, Assay 2 (1 nM MALT1, Ac-LRSR-AMC substrate). Conditions: 1 nM MALT1, 50 μM Ac-LRSR-AMC, 2 h pre-incubation, 8 hr incubation at RT. It counts as biochemical. Put shortly:
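Full-length His-MALT1(1-824) from baculovirus-infected insect cells, pre-incubated with compound 2 h at RT (0.1% DMSO). Then 50 μM Ac-LRSR-AMC added. Buffer was Tris pH 7.5 with 600 mM sodium citrate, DTT, EDTA and BSA. Fluorescence (ex 355/em 460 nm) was read after 8 h at RT and normalized to high/low controls. IC50 from non-linear regression.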
Turning to `CC1(C)C[C@@H](C(=O)Nc2cnc(-n3nccn3)c(C(F)F)c2)c2cnc3cc(Cl)nn3c21` (single isomer, unassigned) [Example 46, 2-chloro-N-(5-(difluoromethyl)-6-(2H-1,2,3-triazol-2-yl)pyridin-3-yl)-8,8-dimethyl-7,8-dihydro-6H-cyclopenta[e]pyrazolo[1,5-a]pyrimidine-6-carboxamide], the IC50 (in general, the concentration at which inhibition is half-maximal) is at least 1000 nM.

With `CC1(C)CC(C(=O)Nc2cnc(-n3ncc(C#N)n3)c(Cl)c2)c2cnc3cc(Cl)nn3c21` (stereo not shown) [Example 137, 2-chloro-N-(5-chloro-6-(4-cyano-2H-1,2,3-triazol-2-yl)pyridin-3-yl)-8,8-dimethyl-7,8-dihydro-6H-cyclopenta[e]pyrazolo[1,5-a]pyrimidine-6-carboxamide], the IC50 was at least 1000 nM.

In the case of `COc1cnc(C(F)(F)F)cc1NC(=O)C1CC(C)(C)c2c1cnc1cc(F)nn21` (single isomer, unassigned) [Example 92, 2-fluoro-N-(5-methoxy-2-(trifluoromethyl)pyridin-4-yl)-8,8-dimethyl-7,8-dihydro-6H-cyclopenta[e]pyrazolo[1,5-a]pyrimidine-6-carboxamide], the IC50 fell in the range of 100 to 1000 nM.

As for `CC1(C)C[C@@H](C(=O)Nc2cc(N=S(C)(C)=O)nc(C(F)(F)F)c2)c2cnc3cc(F)nn3c21` (single isomer, unassigned) [Example 127, N-(2-((dimethyl(oxo)-λ^6-sulfaneylidene)amino)-6-(trifluoromethyl)pyridin-4-yl)-2-fluoro-8,8-dimethyl-7,8-dihydro-6H-cyclopenta[e]pyrazolo[1,5-a]pyrimidine-6-carboxamide], the IC50 was at least 1000 nM.

For the compound `CC1(C)CC(C(=O)Nc2cnc(OC(F)F)c(Cl)c2)c2cnc3cc(F)nn3c21` (single isomer, unassigned) [Example 76, N-(5-chloro-6-(difluoromethoxy)pyridin-3-yl)-2-fluoro-8,8-dimethyl-7,8-dihydro-6H-cyclopenta[e]pyrazolo[1,5-a]pyrimidine-6-carboxamide], the half-maximal inhibitory concentration (IC50) was at least 1000 nM.

`C[C@@]1(C(F)(F)F)C[C@@H](C(=O)Nc2cnc(-n3nccn3)c(C(F)F)c2)c2cnc3cc(Cl)nn3c21` (single isomer, unassigned) [Example 65, 2-chloro-N-(5-(difluoromethyl)-6-(2H-1,2,3-triazol-2-yl)pyridin-3-yl)-8-methyl-8-(trifluoromethyl)-7,8-dihydro-6H-cyclopenta[e]pyrazolo[1,5-a]pyrimidine-6-carboxamide]: the IC50 is 100 to 1000 nM.

As for `CC(C)(O)c1ncc(NC(=O)[C@H]2CC3(CCC3)c3c2cnc2cc(F)nn32)cc1C(F)(F)F` (single isomer, unassigned) [Example 152, 2′-fluoro-N-(6-(2-hydroxypropan-2-yl)-5-(trifluoromethyl)pyridin-3-yl)-6′,7′-dihydrospiro[cyclobutane-1,8′-cyclopenta[e]pyrazolo[1,5-a]pyrimidine]-6′-carboxamide], the IC50 is 100 to 1000 nM.

`CC1(C)CC(O)(C(=O)Nc2cnc(-n3nccn3)c(Cl)c2)c2cnc3cc(Cl)nn3c21` (stereo not shown) [Example 69, 2-chloro-N-(5-chloro-6-(2H-1,2,3-triazol-2-yl)pyridin-3-yl)-6-hydroxy-8,8-dimethyl-7,8-dihydro-6H-cyclopenta[e]pyrazolo[1,5-a]pyrimidine-6-carboxamide] gave an IC50 of at least 1000 nM.

With `CC1(C)CC(C(=O)Nc2cc(C(F)F)c(-c3cc[nH]n3)c(=O)[nH]2)c2cnc3cc(Cl)nn3c21` (stereo not shown) [Example 43, 2-chloro-N-(4-(difluoromethyl)-6-oxo-5˜(1H-pyrazol-3-yl)-1,6-dihydropyridin-2-yl)-8,8-dimethyl-7,8-dihydro-6H-cyclopenta[e]pyrazolo[1,5a]pyrimidine-6-carboxamide], the IC50 lay within 10 to 100 nM.

Take `Cc1cc(NC(=O)[C@H]2CC(C)(C)c3c2cnc2cc(F)nn32)cnc1-n1nccn1` (single isomer, unassigned) [Example 183]: the IC50 was 10 to 100 nM.

As to `CC1(C)CC(C(=O)Nc2cnc(C(=O)N3CC(F)(F)C3)c(C(F)F)c2)c2cnc3cc(Cl)nn3c21` (stereo not shown) [Example 174, 2-chloro-N-(6-(3,3-difluoroazetidine-1-carbonyl)-5-(difluoromethyl)pyridin-3-yl)-8,8-dimethyl-7,8-dihydro-6H-cyclopenta[e]pyrazolo[1,5-a]pyrimidine-6-carboxamide], the 50% inhibitory concentration (IC50) fell in the range of 100 to 1000 nM.

Compound `C[C@@]1(C(F)(F)F)C[C@@H](C(=O)Nc2cnc(-n3nccn3)c(Cl)c2)c2cnc3cc(F)nn3c21` (single isomer, unassigned) [Example 185] had a half-inhibitory concentration (IC50) of under 10 nM.

Turning to `CC1(C)CC(C(=O)Nc2cc(C#N)c(OC(F)F)nn2)c2cnc3cc(F)nn3c21` (stereo not shown) [Example 85, N-(5-cyano-6-(difluoromethoxy)pyridazin-3-yl)-2-fluoro-8,8-dimethyl-7,8-dihydro-6H-cyclopenta[e]pyrazolo[1,5-a]pyrimidine-6-carboxamide], the IC50 is 100 to 1000 nM.

Take `CC1(C)CC(C(=O)Nc2cnc(C(=O)NC3CC3)c(C(F)(F)F)c2)c2cnc3cc(Cl)nn3c21` (stereo not shown) [Example 112, 2-chloro-N-(6-(cyclopropylcarbamoyl)-5˜(trifluoromethyl)pyridin-3-yl)-8,8-dimethyl-7,8-dihydro-6H-cyclopenta[e]pyrazolo[1,5-a]pyrimidine-6-carboxamide]: the IC50 lay in the range of 100 to 1000 nM.

`CC1(C)CC(C(=O)Nc2cnc(OC(F)F)c(C#N)c2)c2cnc3cc(Cl)nn3c21` (single isomer, unassigned) [Example 78, 2-chloro-N-(5-cyano-6-(difluoromethoxy)pyridin-3-yl)-8,8-dimethyl-7,8-dihydro-6H-cyclopenta[e]pyrazolo[1,5-a]pyrimidine-6-carboxamide]: the IC50 is 100 to 1000 nM.

Take `CC1(C)CC(C(=O)Nc2cc(C(F)F)c(-c3cnco3)c(=O)[nH]2)c2cnc3cc(Cl)nn3c21` (stereo not shown) [Example 59, 2-chloro-N-(4-(difluoromethyl)-5˜(oxazol-5-yl)-6-oxo-1,6-dihydropyridin-2-yl)-8,8-dimethyl-7,8-dihydro-6H-cyclopenta[e]pyrazolo[1,5-a]pyrimidine-6-carboxamide]: the IC50 was in the range of 10 to 100 nM.

Regarding `CC1(C)C[C@@H](C(=O)Nc2cnc(OC(F)F)c(Cl)c2)c2cnn3cc(Cl)nc3c21` (single isomer, unassigned) [Example 190, 2-chloro-N-(5-chloro-6-(difluoromethoxy)pyridin-3-yl)-9,9-dimethyl-8,9-dihydro-7H-cyclopenta[d]imidazo[1,2-b]pyridazine-7-carboxamide], the concentration for half-maximal inhibition (IC50) lay in the range of 100 to 1000 nM.

`Cc1nnn(-c2ncc(NC(=O)[C@H]3CC(C)(C)c4c3cnc3cc(Cl)nn43)cc2Cl)n1` (single isomer, unassigned) [Example 140, 2-chloro-N-(5-chloro-6-(5-methyl-2H-tetrazol-2-yl)pyridin-3-yl)-8,8-dimethyl-7,8-dihydro-6H-cyclopenta[e]pyrazolo[1,5-a]pyrimidine-6-carboxamide] displayed an IC50 of 100 to 1000 nM.

As for `CC1(C)CC(C(=O)Nc2cc(C(F)F)c(-c3c[nH]cn3)c(=O)[nH]2)c2cnc3cc(Cl)nn3c21` (stereo not shown) [Example 48, 2-chloro-N-(4-(difluoromethyl)-5˜(1H-imidazol-4-yl)-6-oxo-1,6-dihydropyridin-2-yl)-8,8-dimethyl-7,8-dihydro-6H-cyclopenta[e]pyrazolo[1,5-a]pyrimidine-6-carboxamide], the IC50 lay in the range of 10 to 100 nM.

In turn, `COc1cnc(C(F)(F)F)cc1NC(=O)C1CC(C)(C)c2c1cnc1cc(F)nn21` (single isomer, unassigned) [Example 93, 2-fluoro-N-(5-methoxy-2-(trifluoromethyl)pyridin-4-yl)-8,8-dimethyl-7,8-dihydro-6H-cyclopenta[e]pyrazolo[1,5-a]pyrimidine-6-carboxamide] came in with an IC50 of at least 1000 nM.

`CC1(C)C[C@@H](C(=O)Nc2cnc(OC(F)F)c(C#N)c2)c2cnc3c(F)c(F)nn3c21` (single isomer, unassigned) [Example 90, N-(5-cyano-6-(difluoromethoxy)pyridin-3-yl)-2,3-difluoro-8,8-dimethyl-7,8-dihydro-6H-cyclopenta[e]pyrazolo[1,5-a]pyrimidine-6-carboxamide] returned an IC50 of at least 1000 nM.

In turn, `Cc1c(F)nn2c3c(cnc12)C(C(=O)Nc1cnc(-n2nccn2)c(Cl)c1)CC3(C)C` (single isomer, unassigned) [Example 113, N-(5-chloro-6-(2H-1,2,3-triazol-2-yl)pyridin-3-yl)-2-fluoro-3,8,8-trimethyl-7,8-dihydro-6H-cyclopenta[e]pyrazolo[1,5-a]pyrimidine-6-carboxamide] showed an IC50 of at least 1000 nM.
